Laboratory results published in patent US12077503B2, “Substituted cyclic amides and their use as herbicides” (FMC CORPORATION, priority 2015, dated 2024).

How the values were obtained:
Type in all cases: in vivo
[1] = test system: Galium (catchweed bedstraw, Galium aparine); test: Test A postemergence; details: Galium, post-emergence, 240 h; for pest or weed control at 125 g/ha: 125 g ai/ha, postemergence, visual injury vs untreated controls after approx. 10 d, 0 = no effect, 100 = complete control, read-out: Galium plant response rating (0 to 100 scale); for pest or weed control at 31 g/ha: Postemergence, 31 g ai/ha, visual injury after approx. 10 d, 0 to 100 scale, 0 no effect, 100 complete control, read-out: Plant response rating, Galium
Outline: (§1)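 Each rating is a visual injury score from 0 to 100 given about 10 d after treatment, judged against untreated controls kept alongside in the greenhouse. In loam soil–sand blend, seeds got a preemergence directed soil spray, while postemergence plants were 2 to 10 cm tall at spraying.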

[2] = test system: blackgrass (Alopecurus myosuroides); test: Test A postemergence; details: Alopecurus myosuroides, post-emergence, 240 h; for pest or weed control at 125 g/ha: 125 g ai/ha, postemergence, visual injury vs untreated controls after approx. 10 d, 0 = no effect, 100 = complete control, read-out: Blackgrass plant response rating (0 to 100 scale); for pest or weed control at 31 g/ha: Postemergence, 31 g ai/ha, visual injury after approx. 10 d, 0 to 100 scale, 0 no effect, 100 complete control, read-out: Plant response rating, Blackgrass
Outline: as §1

[3] = test system: giant foxtail (Setaria faberii); test: Test A postemergence; details: Setaria faberi, post-emergence, 240 h; for pest or weed control at 125 g/ha: 125 g ai/ha, postemergence, visual injury vs untreated controls after approx. 10 d, 0 = no effect, 100 = complete control, read-out: Foxtail, Giant plant response rating (0 to 100 scale); for pest or weed control at 31 g/ha: Postemergence, 31 g ai/ha, visual injury after approx. 10 d, 0 to 100 scale, 0 no effect, 100 complete control, read-out: Plant response rating, Foxtail, Giant
Outline: as §1

Kochia (Kochia scoparia) [4] = test: Test A postemergence; details: Bassia scoparia, post-emergence, 240 h; for pest or weed control at 125 g/ha: 125 g ai/ha, postemergence, visual injury vs untreated controls after approx. 10 d, 0 = no effect, 100 = complete control, read-out: Kochia plant response rating (0 to 100 scale); for pest or weed control at 31 g/ha: Postemergence, 31 g ai/ha, visual injury after approx. 10 d, 0 to 100 scale, 0 no effect, 100 complete control, read-out: Plant response rating, Kochia
Outline: as §1

[5] = test system: wheat (Triticum aestivum); test: Test A postemergence; details: Triticum aestivum, post-emergence, 240 h; for plant injury at 125 g/ha: 125 g ai/ha, postemergence, visual injury vs untreated controls after approx. 10 d, 0 = no effect, 100 = complete control, read-out: Wheat plant response rating (0 to 100 scale)
Outline: as §1

[6] = test system: barnyardgrass (Echinochloa crus-galli); test: Test A postemergence; details: Echinochloa crus-galli, post-emergence, 240 h; for pest or weed control at 125 g/ha: 125 g ai/ha, postemergence, visual injury vs untreated controls after approx. 10 d, 0 = no effect, 100 = complete control, read-out: Barnyardgrass plant response rating (0 to 100 scale); for pest or weed control at 31 g/ha: Postemergence, 31 g ai/ha, visual injury after approx. 10 d, 0 to 100 scale, 0 no effect, 100 complete control, read-out: Plant response rating, Barnyardgrass
Outline: as §1

[7] = test system: ryegrass, Italian (Italian ryegrass, Lolium multiflorum); test: Test A postemergence; details: Lolium multiflorum, post-emergence, 240 h; for pest or weed control at 125 g/ha: 125 g ai/ha, postemergence, visual injury vs untreated controls after approx. 10 d, 0 = no effect, 100 = complete control, read-out: Ryegrass, Italian plant response rating (0 to 100 scale)
Outline: as §1

[8] = test system: ragweed (common ragweed, Ambrosia elatior); test: Test A postemergence; details: Ambrosia artemisiifolia, post-emergence, 240 h; for pest or weed control at 125 g/ha: 125 g ai/ha, postemergence, visual injury vs untreated controls after approx. 10 d, 0 = no effect, 100 = complete control, read-out: Ragweed plant response rating (0 to 100 scale)
Outline: as §1

[9] = test system: pigweed (Amaranthus retroflexus); test: Test A postemergence; details: Amaranthus retroflexus, post-emergence, 240 h; for pest or weed control at 125 g/ha: 125 g ai/ha, postemergence, visual injury vs untreated controls after approx. 10 d, 0 = no effect, 100 = complete control, read-out: Pigweed plant response rating (0 to 100 scale)
Outline: as §1

corn (Zea mays) = test: Test A postemergence; details: Zea mays, post-emergence, 240 h; for plant injury at 125 g/ha: 125 g ai/ha, postemergence, visual injury vs untreated controls after approx. 10 d, 0 = no effect, 100 = complete control, read-out: Corn plant response rating (0 to 100 scale); for Corn plant response rating (crop injury, 0 = no effect, 100 = complete kill) at 31 g/ha: Postemergence, 31 g ai/ha, visual injury after approx. 10 d, 0 to 100 scale, 100 complete control
Outline: as §1

[10] = test system: giant foxtail (Setaria faberii); test: Test A preemergence; details: Setaria faberi, pre-emergence, 240 h, 0 to 100 scale where 0 is no effect and 100 is complete control, read-out: Foxtail, Giant plant response rating; for pest or weed control at 31 g/ha: 31 g ai/ha, Preemergence; for pest or weed control at 125 g/ha: 125 g ai/ha, preemergence, approx. 10 d
Outline: as §1

Kochia (Kochia scoparia) [11] = test: Test A preemergence; details: Bassia scoparia, pre-emergence, 240 h, 0 to 100 scale where 0 is no effect and 100 is complete control, read-out: Kochia plant response rating; for pest or weed control at 31 g/ha: 31 g ai/ha, Preemergence; for pest or weed control at 125 g/ha: 125 g ai/ha, preemergence, approx. 10 d
Outline: as §1

[12] = test system: barnyardgrass (Echinochloa crus-galli); test: Test A preemergence; details: Echinochloa crus-galli, pre-emergence, 240 h, 0 to 100 scale where 0 is no effect and 100 is complete control, read-out: Barnyardgrass plant response rating; for pest or weed control at 31 g/ha: 31 g ai/ha, Preemergence; for pest or weed control at 125 g/ha: 125 g ai/ha, preemergence, approx. 10 d
Outline: as §1

[13] = test system: ryegrass, Italian (Italian ryegrass, Lolium multiflorum); test: Test A preemergence; details: Lolium multiflorum, pre-emergence, 240 h, 0 to 100 scale where 0 is no effect and 100 is complete control, read-out: Ryegrass, Italian plant response rating; for pest or weed control at 31 g/ha: 31 g ai/ha, Preemergence; for pest or weed control at 125 g/ha: 125 g ai/ha, preemergence, approx. 10 d
Outline: as §1

[14] = test system: ragweed (common ragweed, Ambrosia elatior); test: Test A preemergence; details: Ambrosia artemisiifolia, pre-emergence, 240 h, 0 to 100 scale where 0 is no effect and 100 is complete control, read-out: Ragweed plant response rating; for pest or weed control at 31 g/ha: 31 g ai/ha, Preemergence; for pest or weed control at 125 g/ha: 125 g ai/ha, preemergence, approx. 10 d
Outline: as §1

[15] = test system: pigweed (Amaranthus retroflexus); test: Test A preemergence; details: Amaranthus retroflexus, pre-emergence, 240 h, 0 to 100 scale where 0 is no effect and 100 is complete control, read-out: Pigweed plant response rating; for pest or weed control at 31 g/ha: 31 g ai/ha, Preemergence; for pest or weed control at 125 g/ha: 125 g ai/ha, preemergence, approx. 10 d
[16] = test system: ducksalad (Heteranthera limosa); test: Test B flooded paddy test; details: Heteranthera limosa, 250 g ai/ha, Flood; 0 to 100 scale where 0 is no effect and 100 is complete control; read-out: Ducksalad plant response rating
Outline: (§2)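 Response scored visually against untreated controls, 0 = no effect and 100 = complete control, 13–15 d after treatment in the greenhouse. Compounds added to paddy water held 3 cm above soil surface. Treatment given at 2-leaf stage.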

[17] = test system: sedge, umbrella (small-flower umbrella sedge, Cyperus difformis); test: Test B flooded paddy test; details: Cyperus difformis, 250 g ai/ha, Flood; 0 to 100 scale where 0 is no effect and 100 is complete control; read-out: Sedge, Umbrella plant response rating
Outline: as §2

[18] = test system: barnyardgrass (Echinochloa crus-galli); test: Test B flooded paddy test; details: Echinochloa crus-galli, 250 g ai/ha, Flood; 0 to 100 scale where 0 is no effect and 100 is complete control; read-out: Barnyardgrass plant response rating
Outline: as §2

rice (Oryra sativa) = test: Test B flooded paddy test; details: Oryza sativa, 250 g ai/ha, Flood; 0 to 100 scale where 0 is no effect and 100 is complete control; read-out: Rice plant response rating
Outline: as §2

| SMILES | pest or weed control at 125 g/ha [1] [%] | pest or weed control at 31 g/ha [1] [%] | pest or weed control at 125 g/ha [2] [%] | pest or weed control at 31 g/ha [2] [%] | pest or weed control at 125 g/ha [3] [%] | pest or weed control at 31 g/ha [3] [%] | pest or weed control at 125 g/ha (Kochia (Kochia scoparia) [4]) [%] | pest or weed control at 31 g/ha (Kochia (Kochia scoparia) [4]) [%] | plant injury at 125 g/ha [5] [%] | pest or weed control at 125 g/ha [6] [%] | pest or weed control at 31 g/ha [6] [%] | pest or weed control at 125 g/ha [7] [%] | pest or weed control at 125 g/ha [8] [%] | pest or weed control at 125 g/ha [9] [%] | plant injury at 125 g/ha (corn (Zea mays)) [%] | Corn plant response rating (crop injury, 0 = no effect, 100 = complete kill) at 31 g/ha (corn (Zea mays)) [%] | pest or weed control at 31 g/ha [10] [%] | pest or weed control at 125 g/ha [10] [%] | pest or weed control at 31 g/ha (Kochia (Kochia scoparia) [11]) [%] | pest or weed control at 125 g/ha (Kochia (Kochia scoparia) [11]) [%] | also measured |
| --- | --- | --- | --- | --- | --- | --- | --- | --- | --- | --- | --- | --- | --- | --- | --- | --- | --- | --- | --- | --- | --- |
| CON1CC[C@H](c2cccc(C(F)(F)F)c2)[C@@H](C(=O)Nc2ccccc2C(F)(F)F)C1=O [Compound 1172] | 0 | 0 | 0 | 0 | 0 | 0 | 0 | 0 | 0 | 0 | 0 | 0 | 0 | 0 | 0 | 0 | 0 | 0 | 0 | 0 | pest or weed control at 31 g/ha [12]: 0%; pest or weed control at 125 g/ha [12]: 0%; pest or weed control at 31 g/ha [13]: 0%; pest or weed control at 125 g/ha [13]: 0%; pest or weed control at 31 g/ha [14]: 0%; pest or weed control at 125 g/ha [14]: 0%; pest or weed control at 31 g/ha [15]: 0%; pest or weed control at 125 g/ha [15]: 0%; pest or weed control at 250 g/ha [16]: 0%; pest or weed control at 250 g/ha [17]: 0%; pest or weed control at 250 g/ha [18]: 0%; pest or weed control at 250 g/ha (rice (Oryra sativa)): 0% |
| O=C1NC[C@H](c2csc3c2CCCC3)[C@H]1C(=O)Nc1cccc(F)c1F [Compound 1163] | 20 | 0 | 20 | 0 | 0 | 0 | 0 | 0 | 0 | 60 | 30 | 0 | 0 | 0 | 0 | 0 | 10 | 60 | 0 | 20 | plant injury at 31 g/ha ([5]; Postemergence, 31 g ai/ha, visual injury after approx. 10 d, 0 to 100 scale, 0 no effect, 100 complete control, read-out: Plant response rating, Wheat): 0%; pest or weed control at 31 g/ha ([7]; Postemergence, 31 g ai/ha, visual injury after approx. 10 d, 0 to 100 scale, 0 no effect, 100 complete control, read-out: Plant response rating, Ryegrass, Italian): 0%; pest or weed control at 31 g/ha ([8]; Postemergence, 31 g ai/ha, visual injury after approx. 10 d, 0 to 100 scale, 0 no effect, 100 complete control, read-out: Plant response rating, Ragweed): 0%; pest or weed control at 31 g/ha ([9]; Postemergence, 31 g ai/ha, visual injury after approx. 10 d, 0 to 100 scale, 0 no effect, 100 complete control, read-out: Plant response rating, Pigweed): 0%; pest or weed control at 31 g/ha [12]: 70%; pest or weed control at 125 g/ha [12]: 90%; pest or weed control at 31 g/ha [13]: 0%; pest or weed control at 125 g/ha [13]: 0%; pest or weed control at 31 g/ha [14]: 0%; pest or weed control at 125 g/ha [14]: 0%; pest or weed control at 31 g/ha [15]: 0%; pest or weed control at 125 g/ha [15]: 0%; pest or weed control at 250 g/ha [16]: 95%; pest or weed control at 250 g/ha [17]: 0%; pest or weed control at 250 g/ha [18]: 30%; pest or weed control at 250 g/ha (rice (Oryra sativa)): 0% |
